Data: patent publication US11519017B2, “Kit for diagnosing infection with Methicillin-resistant Staphylococcus aureus (MRSA) by detecting magnesium ions” (Bioacts Corporation, priority 2017, dated 2022)
“Also recorded” adds a separate entry of the source.

How the values were obtained:
Type in all cases: physicochemical
[1] = Evaluation of magnesium ion detection characteristics and pH stability (color development, 96 well plate); conditions: sodium phosphate buffer pH 4, 7, 9, 11; specimen 120 μM
Protocol: 200 mM of a magnesium chloride solution was prepared by dissolving 0.9521 g of magnesium chloride in 50 ml of deionized water.
59.99 mg of sodium phosphate monobasic and 70.98 mg of sodium phosphate dibasic were dissolved in 50 ml of distilled water to prepare 10 mM of a sodium phosphate buffer solution, and then 28.85 ml of a sodium phosphate monobasic solution and 21.15 ml of a sodium phosphate dibasic solution were mixed to prepare a sodium phosphate buffer solution at pH 7. In a similar manner, the two solutions were mixed to prepare sodium phosphate buffer solutions having acidity of pH 4, pH 7, pH 9, and pH 11, respectively.
For determination of color development, the HNB and the candidate substance were prepared at concentrations of 240 μM and used for the test.
Hydroxynaphthalene blue (HNB) and 9 types of water-soluble candidate substances selected by the solubility test were diluted with distilled water to prepare specimens at concentrations of 240 μM, respectively.
It was confirmed whether the candidate substances according to the present invention reacted with magnesium ions to be color-developed (discolored). In addition, pH stability was confirmed according to whether the candidate substances were specifically color-developed by reacting only with magnesium ions regardless of a pH change.
The color development of the control (HNB) and […] of candidate substances was confirmed under conditions of blank, a MgCl2 solution, pH 4, pH 7, pH 9, and pH 11 using a 96 well plate (12×6 holes). Specifically, 100 μl of deionized water (blank) was added in a first row of the plate, 100 μl of the MgCl2 solution was added in a second row thereof, and 100 μl of each of solutions at pH 4, pH 7, pH 9, and pH 11 was added in third to sixth rows thereof using 10 mM of the sodium phosphate buffer solution prepared in step a) above. In columns of the plate, 100 μl of specimens prepared at a concentration of 240 μM were added to 6 rows, respectively, and a total of 36 specimens were screened. […]

[2] = Evaluation of molar absorption coefficient (UV-vis); conditions: for Molar absorption coefficient: deionized water, UV-vis spectrometer; for absorption coefficient relative to HNB: times higher than that of HNB
Protocol: HNB and 9 types of candidate substances were dissolved in deionized water to prepare 100 μg/ml of a stock and then diluted with deionized water to prepare samples of 50, 25 and 12.5 μg/ml. Next, an absorption spectrum was obtained using an analyzer UV-vis spectrometer (Agilent 8453), and then absorption coefficient values at a concentration of […] were measured and shown in Table 1 below.

[3] = Evaluation of magnesium ion sensitivity at concentration of less than 10 mM
Protocol: Magnesium chloride was dissolved in deionized water and diluted to 8, 10, 12, 14 and 16 mM, respectively, to prepare specimens. Next, as the dye compounds, the HNB and the compound of Chemical Formula 2 were prepared at a concentration of 240 μM, but the compounds of Chemical Formulas 3 and 4 were prepared to be diluted at a concentration of 120 μM by 50% because the molar absorption coefficient of the compounds was two times higher than that of the control (HNB).
In each row of a 96-well plate, […] of the dye compound was filled, and in each column, […] of a diluted magnesium chloride solution was filled, and then the color changes were observed and absorbance was measured. The final concentrations of magnesium chloride in the 96-well plate were 0, 4, 5, 6, 7, and 8 mM, and the final concentrations of HNB and Chemical Formula 2 were 120 μM, respectively, and the final concentrations of Chemical Formulas 3 and 4 were 60 μM, respectively.

Solubility test in water = conditions: 10 mg dissolved in 1 ml of deionized water
Protocol: The solubility in water was measured to confirm the solubility of the synthesized candidate compounds. Specifically, 10 mg of hydroxynaphthalene blue (HNB), which is a compound known to be developed by magnesium ions as a control, and 10 mg of each of the candidate compounds were dissolved in 1 ml of deionized water, and then the solubility was confirmed.
Various color developing dyes represented by Chemical Formula 1 above were dissolved in distilled water (D.W) and the solubility was tested to select a compound having high solubility. The selected compound was diluted at each concentration (100 uM, 50 uM, 25 uM, 12.5 uM, 6.25 uM, and 3.13 uM) and the reaction sensitivity with magnesium (magnesium concentration of 100 mM, 10 mM) by concentration was tested.

| Compound | pH stability (color development with pH change in the absence of magnesium ions) [1] | Molar absorption coefficient [2] | further results |
| --- | --- | --- | --- |
| O=[N+]([O-])c1ccc(O)c(N=Nc2cc(S(=O)(=O)O)c3ccccc3c2O)c1 [Chemical Formula 2] | developed to a color clearly different from that in the presence of magnesium ions under neutral to basic conditions | 12,000 | – |
| Nc1ccc2c(O)c(N=Nc3ccc([N+](=O)[O-])cc3O)c(S(=O)(=O)O)cc2c1 [Chemical Formula 3] | excellent; also recorded: without being influenced by the pH change | 44,000 | absorption coefficient relative to HNB [2]: 3.38 times; absorption spectrum position after shift by magnesium ions ([3]; with magnesium ions): 640 nm; absorption spectrum position before shift by magnesium ions ([3]; without magnesium ions): 500 nm |
| O=[N+]([O-])c1cc(N=Nc2c(S(=O)(=O)O)cc3cc(Nc4ccccc4)ccc3c2O)c(O)c([N+](=O)[O-])c1 [Chemical Formula 4] | excellent; also recorded: without being influenced by the pH change | 31,000 | absorption coefficient relative to HNB [2]: 2.38 times |
| CC1=NN(c2ccccc2)C(O)C1N=Nc1cc([N+](=O)[O-])cc(S(=O)(=O)O)c1O (centres unmarked) [Chemical Formula 5] | – | 33,579 | – |
| O=[N+]([O-])c1cc(N=Nc2c(O)cccc2O)c(O)c(S(=O)(=O)O)c1 [Chemical Formula 6] | – | 18,000 | – |
| O=[N+]([O-])c1cc(N=Nc2c(S(=O)(=O)O)cc3cc(Nc4ccccc4)ccc3c2O)c(O)c(S(=O)(=O)O)c1 [Chemical Formula 7] | – | 25,000 | – |
| O=[N+]([O-])c1cc(N=Nc2c(O)ccc3ccccc23)c(O)c([N+](=O)[O-])c1 [Chemical Formula 8] | – | 5,117 | – |
| O=[N+]([O-])c1cc(S(=O)(=O)O)cc(N=Nc2cc(S(=O)(=O)[O-])c3ccccc3c2O)c1O.[Na+] [Chemical Formula 9] | – | 23,000 | – |
| hydroxynaphthalene blue [HNB, reference compound] | – | 13,000 | solubility in water (Solubility test in water): dissolved in water |
